In PMC11237753, “Discovery of α-(1→6)-linked mannan structures resembling yeast N-glycan outer chains in Aspergillus fumigatus mycelium” (mSphere, 2024):

Experiments:
[1] = target: T1, Mnn5 (AfMnn5) (Aspergillus fumigatus, UniProt B0Y1T7); experiment: reverse-phase HPLC of products; format: biochemical; settings: acceptor 1.5 mM; 10 mM GDP-Man, 0.5 mM MnCl2, pH 6.8, 30 °C, 16 h
T1 construct: gene AFUB_060800; N-terminal 6xHis, transmembrane residues 1-29 removed (30-492), expressed in E. coli SHuffle T7 Express, about 52 kDa
T1 sequence (B0Y1T7 30-492): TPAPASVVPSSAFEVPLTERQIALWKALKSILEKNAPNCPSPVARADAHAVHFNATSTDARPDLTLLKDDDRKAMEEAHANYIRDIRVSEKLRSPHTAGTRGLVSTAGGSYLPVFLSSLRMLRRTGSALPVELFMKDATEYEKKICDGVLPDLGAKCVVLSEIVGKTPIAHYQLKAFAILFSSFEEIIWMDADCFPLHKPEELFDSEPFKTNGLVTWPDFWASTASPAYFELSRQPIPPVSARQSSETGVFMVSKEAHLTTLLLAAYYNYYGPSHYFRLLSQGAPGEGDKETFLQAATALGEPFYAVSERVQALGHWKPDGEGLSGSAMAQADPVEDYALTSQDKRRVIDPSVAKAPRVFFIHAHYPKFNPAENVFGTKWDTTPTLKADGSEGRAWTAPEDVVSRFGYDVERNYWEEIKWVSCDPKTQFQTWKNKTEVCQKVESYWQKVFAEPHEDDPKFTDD

[2] = target: T2, Mnn2 (AfMnn2) (Aspergillus fumigatus, UniProt B0YD06); experiment: reverse-phase HPLC of products; format: biochemical; settings: acceptor 1.5 mM; 10 mM GDP-Man, 0.5 mM MnCl2, pH 6.8, 30 °C, 16 h
T2 construct: gene AFUB_093840; N-terminal 6xHis, transmembrane residues 1-30 removed (31-493), expressed in E. coli SHuffle T7 Express, about 53 kDa
T2 sequence (B0YD06 31-493): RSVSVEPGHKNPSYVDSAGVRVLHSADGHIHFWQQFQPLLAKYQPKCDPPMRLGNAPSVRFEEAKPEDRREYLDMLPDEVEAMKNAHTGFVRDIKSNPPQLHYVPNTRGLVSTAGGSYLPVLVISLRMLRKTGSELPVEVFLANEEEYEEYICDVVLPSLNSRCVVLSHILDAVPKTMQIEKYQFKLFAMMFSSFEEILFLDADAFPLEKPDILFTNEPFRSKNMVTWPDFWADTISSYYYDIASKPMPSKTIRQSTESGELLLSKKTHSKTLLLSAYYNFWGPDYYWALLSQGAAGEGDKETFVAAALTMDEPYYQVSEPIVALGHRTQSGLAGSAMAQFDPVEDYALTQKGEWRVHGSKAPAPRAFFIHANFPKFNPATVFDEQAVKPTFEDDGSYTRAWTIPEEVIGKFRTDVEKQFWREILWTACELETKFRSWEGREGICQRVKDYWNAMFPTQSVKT

Q: For `O=[N+]([O-])c1ccc(O[C@H]2O[C@H](CO)[C@@H](O)[C@H](O)[C@@H]2O)cc1` [p-nitrophenyl α-D-mannopyranoside], which “reverse-phase HPLC of products” value [1] is on record?
A: fractions containing Mnn2 or Mnn5 revealed new products

Q: And the “reverse-phase HPLC of products” value [2]?
A: fractions containing Mnn2 or Mnn5 revealed new products
